Source: patent publication US20250154686A1, “COMPOUND LIBRARY” (CHUGAI SEIYAKU KABUSHIKI KAISHA, priority 2021, published 2025)

Molecular target: T1, Bcl-2 protein (Recombinant Human Bcl-2 Protein) (Homo sapiens, UniProt P10415)
T1 construct: purchased Novus Biologicals NBP2-34889
Assay: AS-MS evaluation of binding of the Example 4 mixture library (1200 compounds/well) to Bcl-2, ASMS ratio (%)
Conditions: mixture library, value belongs to the MS peak assigned to the compound; for ASMS ratio (%) n = 1: replicate n = 1; for ASMS ratio (%) n = 2: replicate n = 2
Summary of the method: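 ASMS ratio (%) derived from reverse-phase LC/MS of three samples: Bcl-2 (20 μM) incubation after SEC, protein-free standard without SEC, and protein-free blank after SEC. Compounds were pooled at 1200/well, 20 nM each, incubated 1 h, 23 °C, dark, in Tris-HCl pH 7.4 buffer with Tween-20 and DTT.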

T1 sequence (P10415 whole entry): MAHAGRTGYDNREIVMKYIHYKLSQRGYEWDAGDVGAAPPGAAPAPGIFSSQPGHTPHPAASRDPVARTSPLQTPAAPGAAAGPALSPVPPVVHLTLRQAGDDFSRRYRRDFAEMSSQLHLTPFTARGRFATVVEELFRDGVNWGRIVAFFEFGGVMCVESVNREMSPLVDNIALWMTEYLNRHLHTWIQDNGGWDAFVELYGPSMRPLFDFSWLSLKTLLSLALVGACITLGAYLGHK

SMILES	ASMS ratio (%) n = 1	ASMS ratio (%) n = 2
CCOc1cccc(-c2ccc(C(C)N3CCN(c4ccc(C(=O)NS(C)(=O)=O)cc4)CC3)cc2)c1 (centres unmarked) [Compound B2I097-01, 4-[4-[1-[4-(3-Ethoxyphenyl)phenyl]ethyl]piperazin-1-yl]-N-methylsulfonylbenzamide]	0.8%	1.4%
CCOc1cncc(-c2ccc(C(C)N3CCN(c4ccc(C(=O)NS(C)(=O)=O)cc4)CC3)cc2)c1 (centres unmarked) [Compound B2I098-01, 4-[4-[1-[4-(5-Ethoxypyridin-3-yl)phenyl]ethyl]piperazin-1-yl]-N-methylsulfonylbenzamide]	0.0%	0.0%
CCOc1cccc(-c2ccc(C(C)N3CCN(c4ccc(C(=O)NS(C)(=O)=O)cc4)CC3)c(F)c2)c1 (centres unmarked) [Compound B2I099-01, 4-[4-[1-[4-(3-Ethoxyphenyl)-2-fluorophenyl]ethyl]piperazin-1-yl]-N-methylsulfonylbenzamide]	–	0.0%
CCOc1cccc(-c2csc(C(=O)N3CCN(c4ccc(C(=O)NS(=O)(=O)C(C)(C)C)nn4)CC3)c2)c1 [Compound B2L001-01]	−67.5%	0.0%
CCOc1cccc(-c2ccc(C(=O)N3CCN(c4ccc(C(=O)NS(=O)(=O)C(C)(C)C)nn4)CC3)cc2C)c1 [Compound B2L003-01]	0.0%	0.0%
CCOc1cccc(-c2ccc(C(=O)N3CCN(c4ccc(C(=O)NS(=O)(=O)C(C)(C)C)nn4)CC3)cc2F)c1 [Compound B2L005-01]	0.0%	0.0%
CCOc1cccc(C#Cc2ccccc2C(=O)N2CCN(c3ccc(C(=O)NS(=O)(=O)C(C)(C)C)nn3)CC2)c1 [Compound B2L007-01]	0.0%	−1.0%
CCOc1cncc(C#Cc2ccccc2C(=O)N2CCN(c3ccc(C(=O)NS(=O)(=O)C(C)(C)C)nn3)CC2)c1 [Compound B2L008-01]	0.0%	0.0%
CCOc1cccc(C#Cc2cncc(C(=O)N3CCN(c4ccc(C(=O)NS(=O)(=O)C(C)(C)C)nn4)CC3)c2)c1 [Compound B2L009-01, N-tert-Butylsulfonyl-6-[4-[5-[2-(3-ethoxyphenyl)ethynyl]pyridine-3-carbonyl]piperazin-1-yl]pyridazine-3-carboxamide]	0.0%	0.0%
CCOc1cncc(C#Cc2cncc(C(=O)N3CCN(c4ccc(C(=O)NS(=O)(=O)C(C)(C)C)nn4)CC3)c2)c1 [Compound B2L010-01]	0.0%	0.0%
CCOc1cccc(-c2ccccc2CCC(=O)N2CCN(c3ccc(C(=O)NS(=O)(=O)C(C)(C)C)nn3)CC2)c1 [Compound B2L011-01]	0.0%	0.0%
CCOc1cccc(-c2ccc(C(=O)N3CCN(c4ccc(C(=O)NS(=O)(=O)C(C)(C)C)nn4)CC3)c3ccccc23)c1 [Compound B2L013-01]	0.0%	0.0%
CCOc1cncc(-c2ccc(C(=O)N3CCN(c4ccc(C(=O)NS(=O)(=O)C(C)(C)C)nn4)CC3)c3ccccc23)c1 [Compound B2L014-01, N-tert-Butylsulfonyl-6-[4-[4-(5-ethoxypyridin-3-yl)naphthalene-1-carbonyl]piperazin-1-yl]pyridazine-3-carboxamide]	0.3%	0.5%

Other lines, results leading:

ASMS ratio (%) n = 1	ASMS ratio (%) n = 2	SMILES
0.0%	0.0%	CCOc1cncc(-c2cc(CN3CCN(c4ccc(C(=O)NS(C)(=O)=O)nn4)CC3)cc(C(F)(F)F)c2)c1 [Compound B2I088-01, 6-[4-[[3-(5-Ethoxypyridin-3-yl)-5-(trifluoromethyl)phenyl]methyl]piperazin-1-yl]-N-methylsulfonylpyridazine-3-carboxamide]
1.4%	0.0%	CCOc1cccc(-c2cc(CN3CCN(c4ccc(C(=O)NS(C)(=O)=O)nn4)CC3)cc(OC(F)(F)F)c2)c1 [Compound B2I089-01, 6-[4-[[3-(3-Ethoxyphenyl)-5-(trifluoromethoxy)phenyl]methyl]piperazin-1-yl]-N-methylsulfonylpyridazine-3-carboxamide]
0.0%	0.0%	CCOc1cncc(-c2cc(CN3CCN(c4ccc(C(=O)NS(C)(=O)=O)nn4)CC3)cc(OC(F)(F)F)c2)c1 [Compound B2I090-01, 6-[4-[[3-(5-Ethoxypyridin-3-yl)-5-(trifluoromethoxy)phenyl]methyl]piperazin-1-yl]-N-methylsulfonylpyridazine-3-carboxamide]
2.6%	0.3%	CCOc1cncc(-c2ccc(CN3CCN(c4ccc(C(=O)NS(C)(=O)=O)nn4)CC3)c3ccccc23)c1 [Compound B2I092-01, 6-[4-[[4-(5-Ethoxypyridin-3-yl)naphthalen-1-yl]methyl]piperazin-1-yl]-N-methylsulfonylpyridazine-3-carboxamide]
0.0%	0.0%	CCOc1cncc(-c2csc(CN3CCN(c4ccc(C(=O)NS(C)(=O)=O)nn4)CC3)c2)c1 [Compound B2I094-01, 6-[4-[[4-(5-Ethoxypyridin-3-yl)thiophen-2-yl]methyl]piperazin-1-yl]-N-methylsulfonylpyridazine-3-carboxamide]
0.0%	0.0%	CCOc1cccc(C#Cc2ccccc2CN2CCN(c3ccc(C(=O)NS(C)(=O)=O)nn3)CC2)c1 [Compound B2I095-01, 6-[4-[[2-[2-(3-Ethoxyphenyl)ethynyl]phenyl]methyl]piperazin-1-yl]-N-methylsulfonylpyridazine-3-carboxamide]
0.0%	0.0%	CCOc1cncc(C#Cc2ccccc2CN2CCN(c3ccc(C(=O)NS(C)(=O)=O)nn3)CC2)c1 [Compound B2I096-01, 6-[4-[[2-[2-(5-Ethoxypyridin-3-yl)ethynyl]phenyl]methyl]piperazin-1-yl]-N-methylsulfonylpyridazine-3-carboxamide]
0.0%	0.0%	CCOc1cncc(-c2csc(C(=O)N3CCN(c4ccc(C(=O)NS(=O)(=O)C(C)(C)C)nn4)CC3)c2)c1 [Compound B2L002-01, N-tert-Butylsulfonyl-6-[4-[4-(5-ethoxypyridin-3-yl)thiophene-2-carbonyl]piperazin-1-yl]pyridazine-3-carboxamide]
5.5%	9.3%	CCOc1cncc(-c2ccc(C(=O)N3CCN(c4ccc(C(=O)NS(=O)(=O)C(C)(C)C)nn4)CC3)cc2C)c1 [Compound B2L004-01]
0.0%	0.0%	CCOc1cncc(-c2ccc(C(=O)N3CCN(c4ccc(C(=O)NS(=O)(=O)C(C)(C)C)nn4)CC3)cc2F)c1 [Compound B2L006-01]
4.3%	7.3%	CCOc1cncc(-c2ccccc2CCC(=O)N2CCN(c3ccc(C(=O)NS(=O)(=O)C(C)(C)C)nn3)CC2)c1 [Compound B2L012-01]
0.0%	0.0%	CCOc1cccc(-c2cc(C(=O)N3CCN(c4ccc(C(=O)NS(=O)(=O)C(C)(C)C)nn4)CC3)cc(C(C)(C)C)c2)c1 [Compound B2L015-01, 6-[4-[3-tert-Butyl-5-(3-ethoxyphenyl)benzoyl]piperazin-1-yl]-N-tert-butylsulfonylpyridazine-3-carboxamide]
0.0%	−5.4%	CCOc1cncc(-c2cc(C(=O)N3CCN(c4ccc(C(=O)NS(=O)(=O)C(C)(C)C)nn4)CC3)cc(C(C)(C)C)c2)c1 [Compound B2L016-01, 6-[4-[3-tert-Butyl-5-(5-ethoxypyridin-3-yl)benzoyl]piperazin-1-yl]-N-tert-butylsulfonylpyridazine-3-carboxamide]
0.0%	0.0%	CCOc1cccc(-c2cc(C(=O)N3CCN(c4ccc(C(=O)NS(=O)(=O)C(C)(C)C)nn4)CC3)cc(C(F)(F)F)c2)c1 [Compound B2L017-01, N-tert-Butylsulfonyl-6-[4-[3-(3-ethoxyphenyl)-5-(trifluoromethyl)benzoyl]piperazin-1-yl]pyridazine-3-carboxamide]
−1.9%	−2.5%	CCOc1cncc(-c2cc(C(=O)N3CCN(c4ccc(C(=O)NS(=O)(=O)C(C)(C)C)nn4)CC3)cc(C(F)(F)F)c2)c1 [Compound B2L018-01, N-tert-Butylsulfonyl-6-[4-[3-(5-ethoxypyridin-3-yl)-5-(trifluoromethyl)benzoyl]piperazin-1-yl]pyridazine-3-carboxamide]
0.0%	0.0%	CCOc1cncc(C#Cc2cc(C(=O)N3CCN(c4ccc(C(=O)NS(=O)(=O)C(C)(C)C)nn4)CC3)cc(C(F)(F)F)c2)c1 [Compound B2L020-01, N-tert-Butylsulfonyl-6-[4-[3-[2-(5-ethoxypyridin-3-yl)ethynyl]-5-(trifluoromethyl)benzoyl]piperazin-1-yl]pyridazine-3-carboxamide]
0.0%	−14.9%	CCOc1cccc(-c2cnn(-c3cc(C(=O)N4CCN(c5ccc(C(=O)NS(=O)(=O)C(C)(C)C)nn5)CC4)cc(C(F)(F)F)c3)c2)c1 [Compound B2L021-01, N-tert-Butylsulfonyl-6-[4-[3-[4-(3-ethoxyphenyl)pyrazol-1-yl]-5-(trifluoromethyl)benzoyl]piperazin-1-yl]pyridazine-3-carboxamide]
